Measured values as given in patent US20050020588A1, “Cysteine protease inhibitors” (priority 1999, published 2005).
pKi: −log10 of the molar value.

Assays:
Format in all cases: biochemical
Mammalian Cathepsin S = Mammalian Cathepsin S (Homo sapiens, UniProt P25774); assay: Ki competitive inhibition, mammalian cathepsin S; conditions: Table 1, first line of each CAP-P2 block; read-out: Ki competitive inhibition measurements vs Mammalian Cathepsin S
Method: Cathepsin S (Mammalian, murine and rat)
Assays were performed in 100 mM sodium phosphate, 100 mM NaCl, pH 6.5 (buffer) in white 384 well plates (Coming Costar). Eight inhibitors were assayed per plate.
Inhibitor dilutions were performed on a 96 well V-bottomed polypropylene plate (Corning Costar). 100 μl of buffer was placed in wells 2-5 and 7-12 of rows A, B, C and D. Sufficient of each inhibitor at 10 mM in DMSO was placed into wells A1-D1 and A6-D6 to give the desired final concentration when the volume in the well was made up to 200 μl with buffer. Column 1 was made up to 200 μl with buffer, mixed by aspirating and dispensing 100 μl in the well, and 100 μl transferred to column 2. The pipette tips were changed and the mixing and transferral repeated to column 5. This process was repeated for columns 6-10.
Substrate dilutions were performed on a 96 deep well polypropylene plate (Beckman Coulter). 280 μl of buffer was placed in wells B-H of columns 1 and 2.70 μl of 10 mM boc-Val-Leu-Lys-AMC was placed in A1 and A2. 2×250 μl of buffer was added to wells A1 and A2, mixed by aspirating and dispensing 280 μl in the well, and 280 μl transferred to row B. The pipette tips were changed and the process repeated down the plate to row H.
Column 1 of the substrate dilution plate was distributed at 10 μl per well into alternate rows beginning at row A. Column 2 was distributed to alternate rows beginning at row B. Row A of the inhibitor dilution plate was distributed at 10 μl per well to alternate rows and columns starting at A1. Row B was distributed to alternate rows and columns starting at A2. Row C was distributed to alternate rows and columns starting at B1 and row D was distributed to alternate rows and columns starting at B2. The assay was started by the addition of 30 μl per well of 20 nM cathepsin S in buffer containing 10 mM 2-mercaptoethanol.
(§1) Data were saved as text files and imported into Excel. The initial rates were determined by linear regression and then fitted to the competitive inhibition equation using SigmaPlot.

Mammalian Cathepsin L = Mammalian Cathepsin L (Homo sapiens, UniProt P07711); assay: Ki competitive inhibition, cathepsin L; conditions: Table 1, second line of each CAP-P2 block; read-out: Ki competitive inhibition measurements vs Mammalian Cathepsin L
Sequence of Mammalian Cathepsin L (P07711 114-333): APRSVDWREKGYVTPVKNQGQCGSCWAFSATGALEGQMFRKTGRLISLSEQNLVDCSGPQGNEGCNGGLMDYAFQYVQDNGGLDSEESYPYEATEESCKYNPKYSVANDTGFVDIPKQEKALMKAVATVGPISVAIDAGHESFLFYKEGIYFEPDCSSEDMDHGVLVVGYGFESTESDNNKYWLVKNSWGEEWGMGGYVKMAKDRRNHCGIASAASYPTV
Method: as §1
(§2) Assays were performed essentially as above. For cathepsin L, the buffer used was 100 mM sodium acetate, 1 mM EDTA, pH 5.5 and the substrate was D-Val-Leu-Lys-AMC with a highest concentration of 100 μM. For cathepsin K, the buffer used was 100 mM MES/Tris, 1 mM EDTA, pH 7.0 and the substrate was D-Ala-Leu-Lys-AMC with a highest concentration of 250 μM.

Mammalian Cathepsin K = target: T1, Mammalian Cathepsin K (Homo sapiens, UniProt P43235); assay: Ki competitive inhibition, cathepsin K; conditions: Table 1, third line of each CAP-P2 block; read-out: Ki competitive inhibition measurements vs Mammalian Cathepsin K
T1 sequence (P43235 115-329): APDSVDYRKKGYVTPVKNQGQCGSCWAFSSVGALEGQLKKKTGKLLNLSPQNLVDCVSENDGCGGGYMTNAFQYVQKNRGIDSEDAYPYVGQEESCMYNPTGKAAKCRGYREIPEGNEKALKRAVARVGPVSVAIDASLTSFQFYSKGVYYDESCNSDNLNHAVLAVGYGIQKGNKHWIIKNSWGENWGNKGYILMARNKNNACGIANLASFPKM
Method: as §2
Convenient assays for cathepsin K arere carried out using human recombinant enzyme. Standard assay conditions for the determination of kinetic constants used a fluorogenic peptide substrate, typically H-D-Ala-Leu-Lys-AMC, and were determined in either 100 mM Mes/Tris, pH 7.0 containing 1 mM EDTA and 10 mM 2-mercaptoethanol or 100 mM Na acetate, pH 5.5 containing 5 mM EDTA and 20 mM cysteine. The enzyme concentration used was 5 nM. The stock substrate solution was prepared at 10 mM in DMSO. Screens were carried out at a fixed substrate concentration of 60 μM and detailed kinetic studies with doubling dilutions of substrate from 250 μM. The total DMSO concentration in the assay was kept below 3%. All assays were conducted at ambient temperature. Product fluorescence (excitation at 390 nm, emission at 460 nm) was monitored with a Labsystems Fluoroskan Ascent fluorescent plate reader. Product progress curves were generated over 15 minutes following generation of AMC product.
Potential inhibitors are screened using the above assay with variable concentrations of test compound. Reactions were initiated by addition of enzyme to buffered solutions of substrate and inhibitor. Ki values were calculated according to equation 1 [formula] where ν0 is the velocity of the reaction, V is the maximal velocity, S is the concentration of substrate with Michaelis constant of KM, and I is the concentration of inhibitor. Determination of Falcipain 2 Proteolytic Catalytic Activity

Sequence of Mammalian Cathepsin S (P25774 115-331): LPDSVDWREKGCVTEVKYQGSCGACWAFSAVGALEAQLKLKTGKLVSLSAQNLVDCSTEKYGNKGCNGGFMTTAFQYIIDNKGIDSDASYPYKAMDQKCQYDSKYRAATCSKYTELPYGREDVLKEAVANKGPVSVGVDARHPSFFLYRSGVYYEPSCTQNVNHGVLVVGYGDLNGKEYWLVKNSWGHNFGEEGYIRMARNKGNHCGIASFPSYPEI

Row | pKi (Mammalian Cathepsin S) | pKi (Mammalian Cathepsin L) | pKi (Mammalian Cathepsin K) | SMILES
1 | 6.64 | 5.57 | 6.39 | CC(C)C[C@H](NC(=O)c1ccc(O)cc1)C(=O)N[C@H]1C(=O)CO[C@H]1C [CAP1-L-Leu/drawing 70]
2 | 6.57 | 6.41 | 7.15 | CC(C)C[C@H](NC(=O)c1ccc(O)cc1)C(=O)N[C@@H]1COCC1=O [CAP1-L-Leu/drawing 73]
3 | 6.40 | 4.71 | 5.05 | CCCC[C@H](NC(=O)c1ccc(O)cc1)C(=O)N[C@@H]1C(=O)CO[C@H]1C [CAP1-L-Nle/drawing 71]
4 | 6.25 | 5.48 | 5.85 | CCCC[C@H](NC(=O)c1ccc(O)cc1)C(=O)N[C@H]1COCC1=O [CAP1-L-Nle/drawing 72]
5 | 6.31 | 5.36 | 5.94 | CCCC[C@H](NC(=O)c1ccc(O)cc1)C(=O)N[C@@H]1COCC1=O [CAP1-L-Nle/drawing 73]
6 | 6.00 | 5.74 | < 4.00 | C[C@@H]1OCC(=O)[C@@H]1NC(=O)[C@H](Cc1ccc(O)cc1)NC(=O)c1ccc(O)cc1 [CAP1-L-Tyr/drawing 70]
7 | 6.07 | 6.48 | 4.57 | O=C(NC(Cc1ccc(O)cc1)C(=O)NC1COCC1=O)c1ccc(O)cc1 [CAP1-L-Tyr/drawing 72]
8 | 6.52 | 4.53 | 4.62 | CC(C)CC[C@H](NC(=O)c1ccc(O)cc1)C(=O)N[C@H]1C(=O)CO[C@H]1C [CAP1-L-hLeu/drawing 70]
9 | 6.60 | 5.41 | 6.41 | C[C@H]1OCC(=O)[C@H]1NC(=O)[C@H](CC(C)(C)C)NC(=O)c1ccc(O)cc1 [CAP1-L-tBu-Ala/drawing 69]
10 | 5.49 | 6.66 | < 4.00 | C[C@H]1OCC(=O)[C@H]1NC(=O)[C@H](Cc1ccc(O)cc1)NC(=O)Cc1ccccc1 [CAP2-L-Tyr/drawing 69]
11 | 6.12 | 5.55 | 5.24 | CCCC[C@H](NC(=O)c1ccccc1)C(=O)N[C@H]1COCC1=O [CAP3-L-Nle/drawing 72]
12 | 5.96 | 6.77 | < 4.00 | C[C@H]1OCC(=O)[C@H]1NC(=O)[C@H](Cc1ccc(O)cc1)NC(=O)c1ccccc1 [CAP3-L-Tyr/drawing 69]
13 | 6.77 | 5.85 | < 4.00 | C[C@@H]1OCC(=O)[C@@H]1NC(=O)[C@H](Cc1ccc(O)cc1)NC(=O)c1ccccc1 [CAP3-L-Tyr/drawing 70]
14 | 5.80 | 6.60 | < 4.00 | O=C(N[C@@H](Cc1ccc(O)cc1)C(=O)N[C@H]1COCC1=O)c1ccccc1 [CAP3-L-Tyr/drawing 72]
15 | 6.32 | 5.83 | 6.54 | CC(C)C[C@H](NC(=O)c1cccs1)C(=O)N[C@@H]1C(=O)CO[C@@H]1C [CAP5-L-Leu/drawing 69]
16 | 5.80 | 6.30 | < 4.00 | C[C@H]1OCC(=O)[C@H]1NC(=O)[C@H](Cc1ccc(O)cc1)NC(=O)c1cccs1 [CAP5-L-Tyr/drawing 69]
17 | 6.33 | 4.61 | 6.19 | C[C@H]1OCC(=O)[C@H]1NC(=O)[C@H](CC(C)(C)C)NC(=O)c1cccs1 [CAP5-L-tBu-Ala/drawing 69]
18 | 6.21 | 5.96 | 6.12 | Cc1cc(C(=O)N[C@@H](CC(C)C)C(=O)N[C@H]2C(=O)CO[C@H]2C)oc1C [CAP6-L-Leu/drawing 70]
19 | 6.17 | 6.17 | 5.56 | Cc1cc(C(=O)N[C@@H](CC(C)C)C(=O)N[C@@H]2C(=O)CO[C@H]2C)oc1C [CAP6-L-Leu/drawing 71]
20 | 6.32 | 6.72 | 6.48 | Cc1cc(C(=O)N[C@@H](CC(C)C)C(=O)N[C@@H]2COCC2=O)oc1C [CAP6-L-Leu/drawing 73]
21 | 5.70 | 7.26 | < 4.00 | Cc1cc(C(=O)N[C@@H](Cc2ccc(O)cc2)C(=O)N[C@@H]2C(=O)CO[C@@H]2C)oc1C [CAP6-L-Tyr/drawing 69]
